The text below walks through data of PubChem BioAssay AID288 (DTP/NCI, 2004).

This assay concerns BDF1 mice, M5076 sarcoma s.c., survival/tumor T/C. Put plainly: NCI In Vivo Anticancer Drug Screen. Data for tumor model Sarcoma M5076 (subcutaneous) in B6D2F1 (BDF1) mice. How it is done:
The antitumor activity of compounds was measured in mice bearing transplantable tumors. Survival or tumor size were measured and the results are expressed as the measurement made in the treated group (T) divided by the measurement made in the vehicle treated control group (C). The tumor model used in this assay is Sarcoma M5076 (subcutaneous) in B6D2F1 (BDF1) mice

The mark [1] stands for this setting: endpoint: mean tumor weight, dose: 1.5 mg/kg/injection, schedule: Q02DX011 (ip), vehicle: saline, higher = larger tumour.
[2] abbreviates: endpoint: mean tumor weight, dose: 3.0 mg/kg/injection, schedule: Q02DX011 (ip), vehicle: saline, higher = larger tumour.
[3] abbreviates: endpoint: median tumor weight (est.), dose: 1.5 mg/kg/injection, schedule: Q02DX011 (ip), vehicle: saline, higher = larger tumour.
Setting [4] is: endpoint: median tumor weight (est.), dose: 3.0 mg/kg/injection, schedule: Q02DX011 (ip), vehicle: saline, higher = larger tumour.
Where [5] appears, read: endpoint: median survival time, dose: 50.0 mg/kg/injection, schedule: Q01DX009 (ip), vehicle: saline with Tween-80, higher = longer survival.
Where [6] appears, read: endpoint: median survival time, dose: 100.0 mg/kg/injection, schedule: Q01DX009 (ip), vehicle: saline with Tween-80, higher = longer survival.
[7] abbreviates: endpoint: median survival time, dose: 200.0 mg/kg/injection, schedule: Q01DX009 (ip), vehicle: saline with Tween-80, higher = longer survival.
[8] abbreviates: endpoint: median tumor weight (est.), dose: 50.0 mg/kg/injection, schedule: Q01DX009 (ip), vehicle: saline with Tween-80, higher = larger tumour.
The mark [9] stands for this setting: endpoint: median tumor weight (est.), dose: 100.0 mg/kg/injection, schedule: Q01DX009 (ip), vehicle: saline with Tween-80, higher = larger tumour.
Where [10] appears, read: endpoint: median tumor weight (est.), dose: 200.0 mg/kg/injection, schedule: Q01DX009 (ip), vehicle: saline with Tween-80, higher = larger tumour.

Several values for one entry are separate records, joined by “and”; a condition that tells them apart may be missing. Equal values may be shown once. Results filed as inconclusive are left out.

In the case of `O=CC(NC(=O)N(CCCl)N=O)C(O)C(O)C(O)CO` (centres undefined), the T/C reads like this: (endpoint: mean tumor weight, dose: 0.75 mg/kg/injection, schedule: Q02DX011 (ip), vehicle: saline, higher = larger tumour) 100 % of control; under setting [1], 33 % of control; under setting [2], 6 % of control; (endpoint: median survival time, dose: 4.32 mg/kg/injection, schedule: Q04DX003 (ip), vehicle: saline, higher = longer survival) 182 % of control; (endpoint: median survival time, dose: 6.17 mg/kg/injection, schedule: Q04DX003 (ip), vehicle: saline, higher = longer survival) 152 % of control and 153 % of control; (endpoint: median survival time, dose: 6.86 mg/kg/injection, schedule: Q01DX001 (ip), vehicle: saline, higher = longer survival) 109 % of control. The T/C is 179 % of control and 181 % of control (endpoint: median survival time, dose: 8.82 mg/kg/injection, schedule: Q04DX003 (ip), vehicle: saline, higher = longer survival); 111 % of control and 113 % of control (endpoint: median survival time, dose: 9.8 mg/kg/injection, schedule: Q01DX001 (ip), vehicle: saline, higher = longer survival); 186 % of control and 188 % of control (endpoint: median survival time, dose: 12.6 mg/kg/injection, schedule: Q04DX003 (ip), vehicle: saline, higher = longer survival); 205 % of control (endpoint: median survival time, dose: 18.0 mg/kg/injection, schedule: Q04DX003 (ip), vehicle: saline, higher = longer survival); 155 % of control and 156 % of control (endpoint: median survival time, dose: 20.0 mg/kg/injection, schedule: Q01DX001 (ip), vehicle: saline, higher = longer survival); 118 % of control (endpoint: median tumor weight (est.), dose: 0.75 mg/kg/injection, schedule: Q02DX011 (ip), vehicle: saline, higher = larger tumour). Further, the T/C was 5 % of control under setting [3] and 4 % of control under setting [4].
`COc1ccc(/C=C2\SC(=S)N(C3CC3)C2=O)cc1OC`: the T/C runs as follows: under setting [5], 95 % of control; under setting [6], 93 % of control; under setting [7], 100 % of control; under setting [8], 90 % of control; under setting [9], 88 % of control; under setting [10], 79 % of control.
For `C[C@]12C=CC(=O)C=C1CC[C@@H]1[C@@H]2C(=O)C[C@@]2(C)[C@H]1CC[C@]2(O)C(=O)CO`, the T/C is, setting by setting: (endpoint: mean tumor weight, dose: 12.5 mg/kg/injection, schedule: Q02DX011 (ip), vehicle: saline, higher = larger tumour) 82 % of control; (endpoint: mean tumor weight, dose: 25.0 mg/kg/injection, schedule: Q02DX011 (ip), vehicle: saline, higher = larger tumour) 52 % of control; (endpoint: mean tumor weight, dose: 50.0 mg/kg/injection, schedule: Q02DX011 (ip), vehicle: saline, higher = larger tumour) 59 % of control.
Turning to `C1CN(P2(N3CC3)=NP(N3CC3)(N3CC3)=NP(N3CC3)(N3CC3)=N2)CCO1` (centres undefined), the T/C by setting is: (endpoint: median survival time, dose: 6.25 mg/kg/injection, schedule: Q02DX011 (ip), vehicle: saline, higher = longer survival) 99 % of control; (endpoint: median survival time, dose: 12.5 mg/kg/injection, schedule: Q02DX011 (ip), vehicle: saline, higher = longer survival) 105 % of control; (endpoint: median survival time, dose: 25.0 mg/kg/injection, schedule: Q02DX011 (ip), vehicle: saline, higher = longer survival) 122 % of control; (endpoint: median survival time, dose: 50.0 mg/kg/injection, schedule: Q02DX011 (ip), vehicle: saline, higher = longer survival) 89 % of control.
On to `CC(=O)Nc1ccc(OC(=O)Nc2ccc(C)c(NC(=O)Oc3ccc(NC(C)=O)cc3)c2)cc1`, for which the T/C is 113 % of control under setting [5], 95 % of control under setting [6], 47 % of control under setting [8] and 187 % of control under setting [9].
Consider `Nc1nnc[se]1`, for which the T/C by setting is: (endpoint: median survival time, dose: 50.0 mg/kg/injection, schedule: Q04DX003 (ip), vehicle: saline with Tween-80, higher = longer survival) 121 % of control; (endpoint: median survival time, dose: 100.0 mg/kg/injection, schedule: Q04DX003 (ip), vehicle: saline with Tween-80, higher = longer survival) 116 % of control; (endpoint: median survival time, dose: 200.0 mg/kg/injection, schedule: Q04DX003 (ip), vehicle: saline with Tween-80, higher = longer survival) 124 % of control.
Take `Cc1cc(C)nc(NS(=O)(=O)c2ccc(NC(=O)C(Cl)(Cl)Cl)cc2)n1`: the T/C is 88 % of control under setting [5]; 88 % of control under setting [6]; 94 % of control under setting [7]; 171 % of control under setting [9]; 100 % of control under setting [10].
For `COc1cc(/C=N/NC(=O)COCC(=O)N/N=C/c2ccc(O)cc2OC)ccc1O`, the T/C under setting [5] was 94 % of control; the T/C under setting [6] was 86 % of control; the T/C under setting [7] was 91 % of control; the T/C under setting [8] is 116 % of control; the T/C under setting [9] is 122 % of control; the T/C under setting [10] was 122 % of control.
With `C1CN1c1nc(N2CC2)nc(N2CC2)n1`, the T/C reads like this: (endpoint: mean tumor weight, dose: 0.1 mg/kg/injection, schedule: Q02DX011 (ip), vehicle: Klucel (hydroxypropylcellulose) (HPC), higher = larger tumour) 76 % of control; (endpoint: mean tumor weight, dose: 0.2 mg/kg/injection, schedule: Q02DX011 (ip), vehicle: Klucel (hydroxypropylcellulose) (HPC), higher = larger tumour) 25 % of control; (endpoint: mean tumor weight, dose: 0.4 mg/kg/injection, schedule: Q02DX011 (ip), vehicle: Klucel (hydroxypropylcellulose) (HPC), higher = larger tumour) 8 % of control; (endpoint: median survival time, dose: 0.06 mg/kg/injection, schedule: Q02DX011 (ip), vehicle: saline, higher = longer survival) 100 % of control; (endpoint: median survival time, dose: 0.13 mg/kg/injection, schedule: Q02DX011 (ip), vehicle: saline, higher = longer survival) 113 % of control; (endpoint: median survival time, dose: 0.25 mg/kg/injection, schedule: Q02DX011 (ip), vehicle: saline, higher = longer survival) 100 % of control. Further, for the setting “endpoint: median survival time, dose: 1.0 mg/kg/injection, schedule: Q02DX011 (ip), vehicle: saline, higher = longer survival”, the T/C is 191 % of control.
Turning to `CN(Cc1cnc2nc(N)nc(N)c2n1)c1ccc(C(=O)N[C@@H](CCC(=O)O)C(=O)O)cc1`, the T/C runs as follows: (endpoint: median survival time, dose: 0.5 mg/kg/injection, schedule: Q04DX006 (ip), vehicle: saline, higher = longer survival) 97 % of control; (endpoint: median survival time, dose: 1.0 mg/kg/injection, schedule: Q04DX006 (ip), vehicle: saline, higher = longer survival) 106 % of control; (endpoint: median survival time, dose: 2.0 mg/kg/injection, schedule: Q04DX006 (ip), vehicle: saline, higher = longer survival) 97 % of control; (endpoint: median survival time, dose: 4.0 mg/kg/injection, schedule: Q04DX006 (ip), vehicle: saline, higher = longer survival) 108 % of control.
With `CC(=O)Nc1ccc(S(=O)(=O)NNC(=O)C(=O)Nc2cccc(Cl)c2)cc1`, the T/C reads like this: under setting [5], 105 % of control; under setting [6], 98 % of control; under setting [7], 86 % of control; under setting [8], 113 % of control; under setting [9], 108 % of control; under setting [10], 92 % of control.
`CCOc1cc(/C=N/NC(=O)N(c2ccccc2)c2ccccc2)ccc1O`: the T/C by setting is: under setting [5], 98 % of control; under setting [6], 99 % of control; under setting [7], 92 % of control.
Regarding `COC12C(COC(N)=O)C3=C(C(=O)C(C)=C(N)C3=O)N1CC1C2N1C` (centres undefined), the T/C was 59 % of control under setting [1]; 51 % of control under setting [2]; 2 % of control (endpoint: mean tumor weight, dose: 6.0 mg/kg/injection, schedule: Q02DX011 (ip), vehicle: saline, higher = larger tumour); 65 % of control under setting [3]; 49 % of control and 53 % of control under setting [4]; 1 % of control (endpoint: median tumor weight (est.), dose: 6.0 mg/kg/injection, schedule: Q02DX011 (ip), vehicle: saline, higher = larger tumour).
For the compound `CC1(C)OC(C)(C)c2c1nnc(-c1ccccc1)[n+]2[O-]`, the T/C runs as follows: under setting [5], 93 % of control; under setting [6], 105 % of control; under setting [7], 103 % of control; under setting [9], 84 % of control; under setting [10], 60 % of control.
As to `COc1cc2cc3c4cc(OC)c(OC)cc4cc[n+]3c(C)c2cc1OC` (tested in a mixture with another compound), the T/C reads like this: (endpoint: mean tumor weight, dose: 37.5 mg/kg/injection, schedule: Q02DX011 (ip), vehicle: saline, higher = larger tumour) 64 % of control; (endpoint: mean tumor weight, dose: 75.0 mg/kg/injection, schedule: Q02DX011 (ip), vehicle: saline, higher = larger tumour) 45 % of control; (endpoint: mean tumor weight, dose: 150.0 mg/kg/injection, schedule: Q02DX011 (ip), vehicle: saline, higher = larger tumour) 13 % of control.
For the compound `Cc1cc(-c2ccc(NC(=O)c3cccc([N+](=O)[O-])c3)c(C)c2)ccc1NC(=O)c1cccc([N+](=O)[O-])c1`, the T/C is 107 % of control under setting [5]; 102 % of control under setting [6]; 102 % of control under setting [7]; 90 % of control under setting [8]; 83 % of control under setting [9]; 71 % of control under setting [10].
`CSc1ccc(NC(=O)NNP(=S)(Oc2ccc(C(C)(C)C)cc2)Oc2ccc(C(C)(C)C)cc2)cc1`: the T/C reads like this: under setting [5], 102 % of control; under setting [6], 107 % of control; under setting [7], 87 % of control; under setting [8], 92 % of control; under setting [9], 83 % of control; under setting [10], 92 % of control.
Turning to `O=c1[nH]c(=O)n([C@H]2CCCO2)cc1F`, the T/C by setting is: (endpoint: mean tumor weight, dose: 50.0 mg/kg/injection, schedule: Q02DX011 (ip), vehicle: alkali diluted with saline, higher = larger tumour) 150 % of control; (endpoint: mean tumor weight, dose: 100.0 mg/kg/injection, schedule: Q02DX011 (ip), vehicle: alkali diluted with saline, higher = larger tumour) 93 % of control; (endpoint: mean tumor weight, dose: 200.0 mg/kg/injection, schedule: Q02DX011 (ip), vehicle: alkali diluted with saline, higher = larger tumour) 74 % of control.
